Measurements published in patent US20190388320A1, “METHOD OF STRENGTHENING HAIR” (Conopco, Inc. d/b/a UNILEVER, priority 2017, published 2019).

Assay: Denaturation temperature Td of treated hair fibres by DSC
Settings: soaked for 30 minutes in 2% aqueous solution; for Average Td (n = 3): denaturation temperature by DSC, hair switches washed, left to dry; for Change in Td of the treated fibres: in words, relative to Control (water)
Description: Virgin dark brown European hair switches of length 25 cm and weight 2 gms, were treated as follows: • Control: After initial washing, soaked for 30 minutes in water • Example 1: After initial washing, soaked for 30 minutes in a 2% aqueous solution of N-α-acetyl-L-lysine • Example A: After initial washing, soaked for 30 minutes in a 2% aqueous solution of L-lysine • Example B: After initial washing, soaked for 30 minutes in a 2% aqueous solution of N-α-acetyl-L-arginine
At the end of the soaking period the switches were left to dry and clippings from a few fibres were used to measure denaturation temperature Td using DSC.

With `CC(=O)N[C@@H](CCCCN)C(=O)O` [Example 1, N-α-acetyl-L-lysine] the “Average Td (n = 3)” value was 153.4 and the “Change in Td of the treated fibres” value was “substantial and significant increase in Td”.

For `NCCCC[C@H](N)C(=O)O` [Example A, L-lysine], the “Average Td (n = 3)” value was 148.1 and the “Change in Td of the treated fibres” value was “decrease Td”.

In the case of `CC(=O)N[C@@H](CCCNC(=N)N)C(=O)O` [Example B, N-α-acetyl-L-arginine], the “Average Td (n = 3)” value is reported as 148.2 and the “Change in Td of the treated fibres” value is reported as “decrease Td”.
